Measured values published in patent US20240189435A1, “NOVEL PEPTIDE-OLIGONUCLEOTIDE CONJUGATE AND USE THEREOF” (KOREA INSTITUTE OF SCIENCE AND TECHNOLOGY, priority 2021, published 2024).

Tests used:
[1] = test system: M2ϕ (M2 bone marrow-derived macrophages); test: Cellular uptake in M2 bone marrow-derived macrophages, fluorescence microscopy; type: cell-based; conditions: 300 nM Cy5-labeled, 6 hours, compared to Free-21
B16 cells [2] = test: Cytotoxicity in B16 cells, cell counting Kit-8 (CCK-8); type: cell-based; conditions: 300 nM, 24 hours
Description: (2) To determine the cytotoxicity of this substance, B16 cells were treated with 300 nM Pep-21 for 24 hours and the cytotoxicity was confirmed using cell counting Kit-8 (CCK-8).

[3] = test system: tissue inhibitor of metalloproteinase-3 (TIMP3); test: Western blot in B16 cells, TIMP3; type: cell-based; conditions: 300 nM, serum free media, 24 hours
Description: (§1) B16 cells were treated with 300 nM Pep-21 in serum free media for 24 hours, protein assay was performed and western blot was performed.
(§2) miRNA-21 related markers: programmed cell death 4 (PDCD4), matrix metalloproteinase-2 (MMP2), tissue inhibitor of metalloproteinase-3 (TIMP3)

Arginasel (M2 marker) = test: Immunofluorescence of tumor-associated macrophages, Arginase1; type: in vivo, mice; conditions: tumor-associated macrophages in excised tumor tissue, 21 days
Description: (§3) 21 days after the animal test, tumor-associated macrophages infiltrating the excised tumor tissue were analyzed by immunofluorescence (IF).

B16 cells [4] = test: Scratch-wound healing assay in B16 cells; type: cell-based; conditions: 300 nM in serum free media 48 hours, observed 72 hours after wounding, compared to the control group
Description: A scratch-wound healing assay was performed in order to analyze cell migration.
B16 cells were wounded using a 200 μL pipette tip, treated with 300 nM Pep-21 in serum free media for 48 hours, and then stabilized in fresh growth media for 24 hours.

iNOS (M1 marker) = test: Immunofluorescence of tumor-associated macrophages, iNOS; type: in vivo, mice; conditions: tumor-associated macrophages in excised tumor tissue, 21 days
Description: as §3

miRNA-21 [5] = test: RT-PCR of miRNA-21 in B16 cells; type: cell-based; conditions: 300 nM, 18 hours
Description: (1) Real-time polymerase chain reaction (RT-PCR) was performed to determine whether or not miRNA-21 expression was inhibited by treatment with Pep-21. B16 cells were treated with 300 nM of Pep-21 for 18 hours, RNA was isolated, cDNA was synthesized, and then real-time polymerase chain reaction (RT-PCR) was performed using miRNA-21 primer.

[6] = test system: B16 melanoma tumor tissue; test: TUNEL assay on excised tumor tissue; type: in vivo, mice; conditions: 21 days, compared to the control group
Description: (§4) 21 days after the animal test, the excised tumor tissue was analyzed by immunofluorescence.
TUNEL assay was performed on tumor tissue to determine the degree of apoptosis.

TNF-α = test: RT-PCR of inflammatory cytokines in M2ϕ, TNF-α; type: cell-based; conditions: 300 nM, 18 hours
Description: (§5) Real-time polymerase chain reaction (RT-PCR) was performed to determine whether or not treatment with Pep-21 inhibited the expression of miRNA-21. M2ϕ was treated with 300 nM of Pep-21 for 18 hours, RNA was isolated and then real-time polymerase chain reaction (RT-PCR) was performed.
(§6) In addition, the expression level of inflammatory cytokines was determined through RT-PCR.

[7] = test system: programmed cell death 4 (PDCD4); test: Western blot in B16 cells, PDCD4; type: cell-based; conditions: 300 nM, serum free media, 24 hours
Description: as §1, §2

B16 melanoma = test: Anti-tumor effect in tumor animal model; type: in vivo, mice; conditions: 500 pmole intratumorally, 3 times at 3-day intervals, from day 12 after tumor inoculation
Excerpt: (§7) On day 12 after tumor inoculation (tumor size of about 70 mm^3), PBS, peptide, Free-21, and Pep-21 were intratumorally injected three times at intervals of three days.

[8] = test system: matrix metalloproteinase-2 (MMP2); test: Western blot in B16 cells, MMP2; type: cell-based; conditions: 300 nM, serum free media, 24 hours
Description: as §1, §2

miRNA-21 [9] = test: Agarose gel electrophoresis of binding to miRNA-21
Description: The binding affinity of miRNA-21 and Pep-21 was evaluated through agarose gel electrophoresis, compared to Free-21.
(§8) Synthetic Pep-21 (10 pmole) was reacted with miRNA-21 and negative control miRNA in 100 μL of PBS under the same conditions as above, in other words, at 37° C. for 1 hour and then whether or not pep-21 recognizes and binds to a specific sequence of miRNA-21 was identified by agarose gel electrophoresis.

B16 melanoma cells = test: Cellular uptake in B16 melanoma cells, fluorescence microscopy; type: cell-based; conditions: B16, 300 nM Cy5-labeled, 6 hours
Description: Melanoma cells (B16) were treated with 300 nM miRNA-21 labeled with Cy5 fluorescent dye for 6 hours and the degree of intracellular uptake was then observed with a fluorescence microscope.

IL-12 = test: RT-PCR of inflammatory cytokines in M2ϕ, IL-12; type: cell-based; conditions: 300 nM, 18 hours
Description: as §5, §6

CD31 = CD31 immunofluorescence of excised tumor tissue; type: in vivo, mice; conditions: 21 days, compared to the control group
Description: as §4
In addition, immunofluorescence was performed using CD31, an angiogenesis marker.

negative control miRNA = test: Agarose gel electrophoresis of sequence specificity with negative control miRNA; type: binding; conditions: 10 pmole in 100 μL PBS, 37° C., 1 hour
Description: as §8
Whether or not Pep-21 recognizes and binds to a specific sequence to miRNA-21 was determined using the negative control miRNA.

miRNA-21 [10] = test: RT-PCR of miRNA-21 in treated cancer tissue; type: in vivo, mice; conditions: B16 tumor tissue, compared to the control group
Excerpt: as §7

miRNA-21 [11] = test: RT-PCR of miRNA-21 in M2ϕ; type: cell-based; conditions: 300 nM, 18 hours
Description: as §5

band shift upon reaction with miRNA-21 (miRNA-21 [9]; 10 pmole in 100 μL PBS, 37° C., 1 hour): a band shift was observed
sequence-specific recognition of miRNA-21 versus negative control miRNA (miRNA-21 [9]; conclusion from the band shift test): selectively binds to miRNA-21
Substance: Pep-21: Azide PDL1-binding peptide (N3-NYSKPTDRQYHF, d-form) click-conjugated to DBCO-anti-miR-21 DNA 5′-TCAACATCAGTCTGATAAGCTA-3′
degree of uptake into cells [1]: successfully delivered anti-21 to the cytoplasm
cytotoxicity (CCK-8) (B16 cells [2]): almost no cytotoxicity
Timp3 expression (western blot) [3]: increased
Arginasel (M2 marker) by IF (Arginasel (M2 marker)): decreased
cancer cell migration (B16 cells [4]): further inhibited
iNOS (M1 marker) by IF (iNOS (M1 marker)): increased
expression of miRNA-21 (RT-PCR) (miRNA-21 [5]): decreased the expression of miRNA-21
degree of apoptosis (TUNEL) [6]: increased compared to the control group
mRNA expression of TNF-α (TNF-α): promoted mRNA expression
PDCD4 expression (western blot) [7]: increased
cancer growth (B16 melanoma): inhibit cancer growth
MMP2 expression (western blot) [8]: decreased
binding affinity to miRNA-21 (gel electrophoresis) (miRNA-21 [9]; 10 pmole annealed with miR-21 (0, 0.25, 0.5, 0.75 and 1) in 100 μL PBS, 37° C., 1 hour): binding affinity increased as the concentration increased
degree of intracellular uptake (B16 melanoma cells): greatly advantageous in intracellular delivery
cellular uptake when blocking with PD-L1 antibody (B16 melanoma cells; PD-L1 antibody blocking): cellular uptake decreased
mRNA expression of IL-12 (IL-12): promoted mRNA expression
CD31 (angiogenesis marker) expression (CD31): decreased compared to the control group
band shift upon reaction with Neg-miRNA (negative control miRNA): no band shift was observed
amount of miRNA-21 expressed in cancer tissue (RT-PCR) (miRNA-21 [10]): reduced compared to the control group
expression of miRNA-21 (RT-PCR) (miRNA-21 [11]): inhibited expression of miRNA-21
